This note sets out measurements from patent US20180296447A1, “BIOCIDAL COMPOSITIONS AND RELATED METHODS” (Imerys Filtration Minerals, Inc., priority 2015, published 2018).

The test system of this experiment is Streptococcus mutans UA159 (ATCC 700610). Briefly: Direct bacterial killing experiment, spiral plating viability. The class given is cell-based. The protocol:
A direct bacterial killing experiment was done using spiral plating to measure the viability of the Streptococcus mutans UA159 (ATCC 700610) (S. mutans). Streptococcus mutans is facultatively anaerobic, gram-positive coccus-shaped bacterium commonly found in the human oral cavity and is a significant contributor to tooth decay.
All of Examples 4-6 were measured blindly without any knowledge of their composition. This was accomplished by pipetting 1 ml of the diluted sample powder particles (100 mg/ml) into 3 ml of Tryptic Soy broth containing 1% sucrose (TSBS) and 20 ul of an overnight culture of S. mutans. The inoculated suspensions were incubated for 24 hours at 37° C. in 5% CO2, diluted 1:10 and 1:1000, and spiral plated onto blood agar plates. The colonies on the plates were counted in a Colony Forming Unit (CFU) after 24 hours of incubation. Regarding controls, 0.12% chlorhexidine (CHX) was used a positive control, and sterile water was used as a negative control.

In the case of `[H]/N=C(\N/C(=N/[H])NCCCCCCNC(=N)NC(=N)Nc1ccc(Cl)cc1)Nc1ccc(Cl)cc1` [CHX control, chlorhexidine], the “Inhibition of S. mutans in the viability assay (in words)” value (24 hours incubation) is on record as “significantly inhibited”. Moreover, where the note is “S. mutans, 1 ml of 100 mg/ml sample powder in 3 ml TSBS, 24 hours at 37° C., 5% CO2, CHX 0.12%”, the “Mean (CFU/ml)” value is given as 1.67 × 10^2 ± 0.047 CFU/ml.
